Source: US4178371A, “Tetrapeptide derivatives” (Reckitt & Colman Products Limited, priority 1977, dated 1979)

Columns and labels:
opiate receptor sites = details: isolated guinea pig ileum twitch response, dose response curve compared with Met enkephalin
From the text: The test used for the detection of their agonist activity at opiate receptor sites is that employing the transmurally stimulates guinea pig ileum preparation described in Kosterlitz et al., Brit. J. Pharmacol, and Chemotherapy 33. 266-276 (1968). […] Exp. Ther. 125, 237 (1959) and by the rat tail flick test (intravenous administration) according to Jansen et al., Arzneim Forsch. 13, 266 (1963).
In the above mentioned test method of Kosterlitz et al male or female guinea pigs (Duncan Hartley strain) are killed by a blow on the head and a portion of the ileum removed and set up in an isolated organ bath of 50 ml volume. A `twitch` response is produced by low frequency (0.1 Hz) stimulation with 0.5 msec rectilinear pulses. A test compound is dissolved in distilled water to produce a stock solution of concentration 1 mg/ml. Serial dilutions are carried out using Krebs solution to produce concentrations of 10 μg, 1 μg and 0.1 μg/ml. The compound is tested by adding between 0.1-0.3 ml of the solutions to the organ bath. A dose response curve is then drawn and compared with that for Met enkephalin.

mouse = mouse phenyl-quinone anti writhing test of Hendershot et al (H & F); format: in vivo; details: i.v.
From the text: (§1) J. Pharmacol, and Chemotherapy 33. 266-276 (1968). […] 13, 266 (1963).

rat = rat tail flick test (R.T.F.), intravenous administration; format: in vivo; details: hot water 55° as nociceptive stimulus, i.v.
Method: as §1
In the rat tail flick test hot water (maintained at 55°±1°C.) is used as the nociceptive stimulus.

Row | SMILES | G.P.I. Potency (X Met enkephalin) (opiate receptor sites) | H & F ED50 (mouse) [mg/kg] | R.T.F. ED50 (rat) [mg/kg]
1 | CC(=O)NCCNC(=O)[C@H](Cc1ccccc1)NC(=O)CNC(=O)[C@@H](C)NC(=O)[C@@H](N)Cc1ccc(O)cc1 [Example 1, L-Tyrosyl-D-alanylglycyl-L-phenylalanin-2-acetamidoethylamide] | 2.6 | 0.01 | 
2 | C[C@@H](NC(=O)[C@@H](N)Cc1ccc(O)cc1)C(=O)NCC(=O)N(C)[C@@H](Cc1ccccc1)C(=O)NCCCN(C)C [Example 2, L-Tyrosyl-D-alanylglycyl-N-methyl-L-phenylalanine-3-dimethylaminopropylamide] | 7.2 | 0.28 | 2.0
3 | C[C@@H](NC(=O)[C@@H](N)Cc1ccc(O)cc1)C(=O)NCC(=O)N(C)[C@@H](Cc1ccccc1)C(=O)NCCN(C)C [Example 4, L-Tyrosyl-D-alanylglycyl-N-methyl-L-phenylalanine-2-dimethylaminoethylamide] | 8.5 | 0.003 | 1.4
4 | C[C@@H](NC(=O)[C@@H](N)Cc1ccc(O)cc1)C(=O)NCC(=O)N(C)[C@@H](Cc1ccccc1)C(=O)NCCN [Example 6, L-Tyrosyl-D-alanylglycyl-N-methyl-L-phenylalanine-2-aminoethylamide] | 13.0 | 0.028 | 0.37
5 | C[C@@H](NC(=O)[C@@H](N)Cc1ccc(O)cc1)C(=O)NCC(=O)N(C)[C@@H](Cc1ccccc1)C(=O)NCCCC(=O)N(C)c1ccccc1 [Example 19, HTyrDAlaGlyMePheNH(CH2)3 CONMePh] | 23.2 |  | 
6 | C[C@@H](NC(=O)[C@@H](N)Cc1ccc(O)cc1)C(=O)NCC(=O)N(C)[C@@H](Cc1ccccc1)C(=O)NCC[N+](C)(C)[O-] [Example 22, HTyrDAlaGlyMePheNH(CH 2)2 N(O)Me2] | 6.5 |  | 
